Measurements reported in PMC11203266, “Continuous evolution of compact protein degradation tags regulated by selective molecular glues” (Science (New York, N.Y.), 2024).

What was measured:
CRBNCTD = CRBNCTD (Homo sapiens, UniProt Q96SW2); assay: CRBNCTD MG-PACE circuit luminescence assay; type: cell-based; conditions: pomalidomide; degron SD0; vs DMSO
From the text: We also explored anchoring the circuit with the CRBN C-terminal domain (CTD) alone, which contains the IMiD binding pocket (Fig. 2B) ([65], [69]). […] We attributed the difference in maximum circuit activation to poor expression of full-length CRBN in E. coli. In our initial efforts, we used the CRBNCTD MG-PACE circuit, hypothesizing that higher activation (lower selection stringency) would better support weak-binding SD0 variants in the early stages of evolution.
Chemically competent S2060 cells were co-transformed with accessory and complementary plasmids (Table S1). Cells were plated on LB agar supplemented with carbenicillin, spectinomycin, and tetracycline and grown overnight at 37 °C. Single colonies were seeded in 1 mL DRM with carbenicillin and spectinomycin and grown overnight in a 37 °C shaker at 220 rpm. Overnight cultures were back-diluted 1:100 in DRM with carbenicillin and spectinomycin and grown at 37 °C with shaking until OD600 values reached 0.3-0.4. Polymyxin B nonapeptide (PMBN) was added to a final concentration of 3 μg/mL culture from a 1000x stock (3 mg/mL in DMSO). […] 96-well plates were then incubated in an Infinite M1000 Pro microplate reader (Tecan) at 37 °C with continuous shaking for ~1 hour prior to reading A600 nm and luminescence values. Raw luminescence values were then divided by the corresponding A600 nm values to normalize to cell density.

[1] = tested on: SD40 fusions with Nluc, Fluc, and PRKRA; assay: Immunoblot, degradation of exogenously expressed SD40 fusion proteins in HEK293T cells; type: cell-based, human
Experimental: To test the versatility of SD40, we generated five stable HEK293T cell lines that exogenously express N- or C-terminal SD40 fusions with Nluc, Fluc, and the kinase activator PRKRA. […] To investigate whether SD40 targets unintended neosubstrates for degradation, we performed global proteomics using HEK293T cells stably expressing SD40–eGFP.
HEK293T or K562 cells were plated at a density of 1.6 x 10^5 cells/well in a 24-well plate coated with poly-D-lysine (Corning) in 1 mL media (DMEM + 10% FBS for HEK293T cells and RPMI + 10% FBS for K562 cells). After 16–18 hrs, cells were treated with either DMSO or the indicated concentration of small molecules to a 0.5% final concentration of DMSO. Plates were incubated at 37 °C, 5% CO2 for 24 hours for all cell lines except endogenously tagged PLK1–SD40 HEK293T cells, which were incubated for 2 hours. Cells were washed with PBS and then lysed for 30 minutes at 4 °C in radioimmunoprecipitation assay (RIPA; 25 mM Tris-HCl, 150 mM NaCl, 1% NP-40, 1% sodium deoxycholate, 0.1% SDS, pH ~ 7.6) buffer containing 1 mM phenylmethylsulfonyl fluoride (PMSF; Sigma Aldrich) and 1 x EDTA-free protease inhibitor cocktail (Roche). Lysates were centrifuged for 20 min @18,000 x g to isolate the soluble fractions. Protein concentration in clarified lysates was quantified using Pierce BCA Protein Assay Kit (Thermo Scientific) according to the manufacturer’s protocol. Clarified lysates were mixed with NuPAGE LDS Sample Buffer (Thermo NP0007) containing 10 mM DTT and boiled for 10 minutes. Gel electrophoresis was performed on boiled samples using polyacrylamide gels (Invitrogen NP0329BOX) with equal amounts of total protein in each lane. Proteins were transferred to nitrocellulose membranes (Invitrogen IB23001) using the iBlot 2 (Invitrogen IB21001) P0 protocol. After transfer, membranes were blocked in blocking buffer (50 mM Tris-HCl, 150 mM NaCl, 0.5% Tween-20, 1% bovine serum albumin, pH 7.4) for 1 hr at RT and then incubated with primary antibody overnight at 4 °C in blocking buffer. […]

CRBNCTD, sequence (Q96SW2 318-426 limits assumed): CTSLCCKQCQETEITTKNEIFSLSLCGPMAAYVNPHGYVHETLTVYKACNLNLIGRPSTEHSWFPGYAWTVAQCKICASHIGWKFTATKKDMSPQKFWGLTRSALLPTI

Nc1cccc2c1C(=O)N(C1CCC(=O)NC1=O)C2=O (stereo not shown) [pomalidomide, reference compound]
transcriptional activation at the highest dose (CRBNCTD): 13 fold

O=C1CCC(N2C(=O)c3ccc(N4CCOCC4)cc3C2=O)C(=O)N1 (stereo not shown) [PT-179]
time at which PRKRA degradation occurred ([1]; 1 μM PT-179, SD40-PRKRA): ≤ 10 min | time to near complete PRKRA degradation (in words) ([1]; 1 μM PT-179, SD40-PRKRA): nearly complete within one hour | degradation of N- or C-terminal SD40 fusion constructs (in words) ([1]; 24 hrs, 1 nM-10 µM): robust dose-dependent degradation
